How the values were obtained:
[1] = tested on: T1, Erbin‐Erbb2 complex; test: HTRF assay, Erbin-ERBB2 interaction; format: biochemical, human; conditions: 400µM compound; Figure 1c
T1 construct: human Erbin PDZ domain; made in house; host or cells: E. coli BL21 (DE3)
Method: (§1) HTRF assays were performed in white 96Well Small VolumeHiBase Polystyrene Microplates (Greiner) with a total working volume of […], as described previously (Milhas et al., 2016). Briefly, compounds were firstly dispensed into the wells at 400 µM for the primary screen or with serial DMSO dilutions for IC50 measurement assays. Primary screening assays have been performed in monoplicate while IC50 measurements were performed in triplicates. All HTRF reagents were purchased from CisBio Bioassays and reconstituted according to the supplier protocols. The plates were spun for 3 min at 500 × g and then incubated at 4°C for 16 h. The HTRF signals were recorded on a POLAR star Omega plate reader (BMG Labtech) with an excitation filter at 337 nm and fluorescence wavelength measurement at 620 and 665 nm, an integration delay of 60 µs and an integration time of 400 µs. Results were analysed with a two‐wavelength signal ratio: [intensity (665 nm)/intensity (620 nm)] × 10^4. Percentage of inhibition was calculated using the following equation: % inhibition = [(compound signal)–(min signal)]/[(max signal)–(min signal)] × 100, where ‘max signal’ is the signal ratio with the compound vehicle alone (DMSO) and ‘min signal’ the signal ratio without protein B. For IC50 measurements, values were normalized and fitted with Prism (GraphPad software) using the following equation: Y = 100/(1+((X/ IC50)ˆHill slope)).
(§2) The search strategy for PDZ2 syntenin inhibitors was based on the PDZ targeted library developed from Enamine compound collection. The PDZ targeted library was developed to cover virtually all PDZ domains. Consequently, to create the syntenin PDZ2 focused library we used two independent paths: docking of the PDZ targeted library against structures of syntenin PDZ2 available in Protein Data Bank and a random selection from the PDZ targeted library. The docking has produced 21 virtual hits, which were added to 118 randomly selected compounds (10% of the pan PDZ library). The resultant set of 139 compounds, syntenin PDZ library was subjected to experimental validation. The primary screen was performed at 400µM using a previously validated Homogeneous Time Resolved Fluorescence (HTRF) assay (Milhas et al., 2016). HTRF is based on Fluorescence Resonance Energy Transfer (FRET) between two fluorescent reagents. In the present case, Anti‐GST‐Terbium antibody and streptavidin‐bound Dynamic2 were used as donor and acceptor respectively. Interactions between GST PDZ‐fusion proteins and biotinylated peptides containing PDZ binding motifs were challenged with the potential inhibitors. In parallel, control experiments were performed with a biotinylated‐GST to verify that compounds were not interfering with the FRET signal in a non‐specific manner. To identify inhibitors of syntenin PDZ interactions, we tested for the effect of the 139 compounds on syntenin‐SDC2 and syntenin‐Frizzled7 complexes (Figure 1a; Table S1). When the HTRF signal dropped below 0.9, inhibition was considered as effective. […] Noteworthy, these compounds had no effect on other PDZ complexes like GRASP55‐JAM‐B or GRASP55‐JAM‐C and Erbin‐Erbb2 or Erbin‐P0071 (Figure 1c).

[2] = tested on: T2, syntenin‐Frizzled7 complex (GST-SyntFL / FZD7 peptide); test: HTRF assay, syntenin-Frizzled 7 interaction; format: biochemical, human; conditions: for GST SyntFL Frizzled 7 (signal ratio): 400µM compound, Figure 1c; for HTRF ASSAY GST-SyntFL FZD7 (HTRF signal ratio): primary screen, 400 µM compound, signal below 0.9 considered effective inhibition, Table S1
T2 construct: residues 1–298 or syntenin full‐length (FL) for HTRF assays; made in house; host or cells: E. coli ER2566
Method: as §1, §2

[3] = tested on: T3, GRASP55‐JAM‐B complex; test: HTRF assay, GRASP55-JAM-B interaction; format: biochemical, human; conditions: 400µM compound; Figure 1c
T3 construct: Human GRASP55 tandem PDZ; made in house; host or cells: E. coli BL21 (DE3)
Method: as §1, §2

[4] = tested on: T4, Erbin‐P0071 complex; test: HTRF assay, Erbin-P0071 interaction; format: biochemical, human; conditions: 400µM compound; Figure 1c
T4 construct: human Erbin PDZ domain; made in house; host or cells: E. coli BL21 (DE3)
Method: as §1, §2

[5] = target: T5, syntenin‐SDC2 complex (GST-SyntFL / SDC2 peptide) (Homo sapiens, UniProt O00560); test: HTRF assay, syntenin-SDC2 interaction; format: biochemical; conditions: for GST SyntFL Syndecan 2 (signal ratio): 400µM compound, Figure 1c; for inhibition of syntenin PDZ interactions: HTRF primary screen, 400µM, syntenin-SDC2 and syntenin-Frizzled7; for HTRF ASSAY GST-SyntFL SDC2 (HTRF signal ratio): primary screen, 400 µM compound, signal below 0.9 considered effective inhibition, Table S1
T5 construct: residues 1–298 or syntenin full‐length (FL) for HTRF assays; made in house; host or cells: E. coli ER2566
T5 sequence (O00560 1-298): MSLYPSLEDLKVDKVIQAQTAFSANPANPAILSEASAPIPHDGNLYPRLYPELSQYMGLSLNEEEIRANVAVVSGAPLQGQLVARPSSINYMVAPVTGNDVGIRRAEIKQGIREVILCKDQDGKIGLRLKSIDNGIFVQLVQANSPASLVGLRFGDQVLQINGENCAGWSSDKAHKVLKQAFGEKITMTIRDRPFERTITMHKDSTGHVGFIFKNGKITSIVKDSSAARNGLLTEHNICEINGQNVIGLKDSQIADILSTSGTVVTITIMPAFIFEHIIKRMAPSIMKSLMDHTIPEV

[6] = tested on: biotinylated‐GST; test: HTRF control with biotinylated-GST (non-specific interference with FRET signal); conditions: for GST-biot (signal ratio): 400µM compound, Figure 1c; for effect on control (biotinylated‐GST) FRET signals: HTRF primary screen, 400µM; for HTRF ASSAY GST-biot (HTRF signal ratio, control): primary screen, 400 µM compound, Table S1
Method: as §1, §2

[7] = tested on: T6, GRASP55‐JAM‐C complex; test: HTRF assay, GRASP55-JAM-C interaction; format: biochemical, human; conditions: 400µM compound; Figure 1c
T6 construct: Human GRASP55 tandem PDZ; made in house; host or cells: E. coli BL21 (DE3)
Method: as §1, §2

| SMILES | GST-Erbin ERBB2 (signal ratio) [1] | GST SyntFL Frizzled 7 (signal ratio) [2] | HTRF ASSAY GST-SyntFL FZD7 (HTRF signal ratio) [2] | GST-GRASP JAM-B (signal ratio) [3] | GST-Erbin P0071 (signal ratio) [4] | GST SyntFL Syndecan 2 (signal ratio) [5] | inhibition of syntenin PDZ interactions [5] | HTRF ASSAY GST-SyntFL SDC2 (HTRF signal ratio) [5] | GST-biot (signal ratio) [6] | effect on control (biotinylated‐GST) FRET signals [6] | HTRF ASSAY GST-biot (HTRF signal ratio, control) [6] | GST-GRASP JAM-C (signal ratio) [7] | inhibition at 400 µM ([5]; HTRF, 400 µM, syntenin-SDC2 and syntenin-Frizzled 7 complexes, read-out: extent of inhibition of Syntenin‐PDZ complexes) |
| --- | --- | --- | --- | --- | --- | --- | --- | --- | --- | --- | --- | --- | --- |
| Cc1ccc(S(=O)(=O)N[C@H](C(=O)O)C(C)C)cc1C [Compound C47] | 0.96 | 0.78 | 0.71 | 1.1 | 1 | 0.78 | inhibit | 0.74 | 0.99 | no significant effect | 0.96 | 1 | – |
| CC(C)[C@H](NS(=O)(=O)c1ccc2c(c1)OCCCO2)C(=O)O [Compound C37] | 1.04 | 0.7 | 0.68 | 1 | 0.95 | 0.74 | inhibit | 0.73 | 0.97 | no significant effect | 1.04 | 1 | – |
| CC(C)[C@H](NS(=O)(=O)c1ccc2ccccc2c1)C(=O)O [Compound C38] | 0.92 | 0.55 | 0.56 | 1 | 1 | 0.58 | inhibit | 0.59 | 0.96 | no significant effect | 0.92 | 1 | 40% |
| CC(C)[C@H](NC(=O)COc1ccc2ccccc2c1)C(=O)O [Compound C4] | 1.02 | 0.78 | 0.77 | 0.97 | 0.89 | 0.78 | inhibit | 0.78 | 0.97 | no significant effect | 1.02 | 0.89 | – |

Source: PMC7737769, “Pharmacological inhibition of syntenin PDZ2 domain impairs breast cancer cell activities and exosome loading with syndecan and EpCAM cargo” (Journal of Extracellular Vesicles, 2020)
